# Experimental data as given in patent US8575163B2, “Pyrrolopyridinylpyrimidin-2-ylamine derivatives” (Merck Patent GmbH, priority 2009, dated 2013).
# Target: T1, PDK1 (Homo sapiens, UniProt O15530)
# T1 construct: His6 (N)
# T1 sequence (O15530 51-556 limits assumed): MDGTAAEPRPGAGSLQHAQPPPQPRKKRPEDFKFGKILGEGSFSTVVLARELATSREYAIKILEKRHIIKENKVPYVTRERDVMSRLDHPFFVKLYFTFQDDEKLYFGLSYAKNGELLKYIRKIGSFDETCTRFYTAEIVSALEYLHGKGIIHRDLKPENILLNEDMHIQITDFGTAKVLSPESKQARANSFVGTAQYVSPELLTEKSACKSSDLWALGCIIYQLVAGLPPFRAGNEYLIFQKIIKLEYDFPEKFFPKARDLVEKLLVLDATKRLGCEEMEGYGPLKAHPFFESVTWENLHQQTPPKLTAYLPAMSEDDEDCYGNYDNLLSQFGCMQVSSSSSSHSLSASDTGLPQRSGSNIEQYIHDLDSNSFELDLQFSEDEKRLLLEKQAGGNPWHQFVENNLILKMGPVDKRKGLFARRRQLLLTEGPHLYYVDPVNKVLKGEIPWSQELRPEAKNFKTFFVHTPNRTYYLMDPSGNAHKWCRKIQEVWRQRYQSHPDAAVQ
# Experiment: Test for the inhibition of PDK1 (flashplate, 33P-ATP)
# Assay type: biochemical
# Details: His6-PDK1 3.4 nM, 4 μM ATP, 30° C., 60 min
# Protocol: The experimental batches are carried out in a flashplate system with 384 wells/microtitration plate.
# In each case, the PDK1 sample His6-PDK1(1-50)(3.4 nM), the PDK1 substrate biotin-bA-bA-[…] (400 nM), 4 μM ATP (with 0.2 μCi of ^33 P-ATP/well) and the test substance in 50 μl of conventional experimental solution per well are incubated at 30° C. for 60 min. The test substances are employed in corresponding concentrations (if desired in a dilution series). The control is carried out without test substance. The reaction is stopped using standard methods and washed. The activity of the kinase is measured via the incorporated radioactivity in top count. In order to determine the non-specific kinase reaction (blank value), the experimental batches are carried out in the presence of 100 nM staurosporin.
# The radioactivity (decompositions per minute) of the blank value (no use of test substance in the presence of staurosporin) is subtracted from all other radioactivity values. The controls (kinase activity without test substance) are set equal to 100 percent and all other radioactivity values (after subtracting the blank value) are expressed set in relation thereto (for example in % of the control).
# [formula] IC50 values (50% inhibition) are determined with the aid of statistics programmes, such as, for example, RS1.
row,SMILES,IC50
1,"CC(O)(c1ccccc1)c1cc(-c2c[nH]c3ncc(-c4cnn(CCO)c4)cc23)nc(N)n1 (single isomer, unassigned) [A97, 1-(2-amino-6-{5-[1-(2-hydroxyethyl)-1H-pyrazol-4-yl]-1H-pyrrolo[2,3-b]-pyridin-3-yl}pyrimidin-4-yl)-1-phenylethanol]",38 nM
2,"CCC(OCOC)(c1cc(-c2c[nH]c3ncc(-c4cnn(C)c4)cc23)nc(N)n1)c1ccncc1F (stereo not drawn) [A37, 4-[1-(3-fluoropyridin-4-yl)-1-methoxymethoxypropyl]-6-[5-(1-methyl-1H-pyrazol-4-yl)-1H-pyrrolo[2,3-b]pyridin-3-yl]pyrimidin-2-ylamine]",25 nM
3,"COCOC(C)(c1ccccc1)c1cc(-c2c[nH]c3ncc(-c4cnn(CCC(N)=O)c4)cc23)nc(N)n1 (stereo not drawn) [A74, 3-(4-{3-[2-amino-6-(1-methoxymethoxy-1-phenylethyl)pyrimidin-4-yl]-1H-pyrrolo[2,3-b]pyridin-5-yl}pyrazol-1-yl)propionamide]",68 nM
4,"CNc1nc(-c2c[nH]c3ncc(-c4cnn(CCO)c4)cc23)cc(C(C)(O)c2ccccc2)n1 (single isomer, unassigned) [A90, 1-(6-{5-[1-(2-hydroxyethyl)-1H-pyrazol-4-yl]-1H-pyrrolo[2,3-b]pyridin-3-yl}-2-methylaminopyrimidin-4-yl)-1-phenylethanol]",21 nM
5,"COCO[C@@](C)(c1cccc(F)c1)c1cc(-c2c[nH]c3ncc(Br)cc23)nc(N)n1 [A72, 4-(5-bromo-1H-pyrrolo[2,3-b]pyridin-3-yl)-6-[(S)-1-(3-fluorophenyl)-1-methoxymethoxyethyl]pyrimidin-2-ylamine]",950 nM
6,"Cn1cc(-c2cnc3[nH]cc(-c4cc(C(C)(O)c5cccnc5)nc(N)n4)c3c2)cn1 (single isomer, unassigned) [A57, 1-{2-amino-6-[5-(1-methyl-1H-pyrazol-4-yl)-1H-pyrrolo[2,3-b]pyridin-3-yl]-pyrimidin-4-yl}-1-pyridin-3-ylethanol]",28 nM
7,"CC(C)(C)OC(=O)NCCNC(=O)CCn1cc(-c2cnc3[nH]cc(-c4cc(C(C)(O)c5ccccc5)nc(N)n4)c3c2)cn1 (stereo not drawn) [A63, tert-butyl {2-[3-(4-{3-[2-amino-6-(1-hydroxy-1-phenylethyl)pyrimidin-4-yl]-1H-pyrrolo[2,3-b]pyridin-5-yl}pyrazol-1-yl)propionylamino]ethyl}carbamate]",110 nM
8,"CCC(O)(c1cccc(F)c1)c1cc(-c2c[nH]c3ncc(-c4ccc(CO)cc4)cc23)nc(N)n1 (single isomer, unassigned) [A33, 1-{2-amino-6-[5-(4-hydroxymethylphenyl)-1H-pyrrolo[2,3-b]pyridin-3-yl]-pyrimidin-4-yl}-1-(3-fluorophenyl)propan-1-ol]",170 nM
9,"CCC(O)(c1ccncc1)c1cc(-c2c[nH]c3ncc(-c4cn[nH]c4)cc23)nc(N)n1 (single isomer, unassigned) [A43, 1-{2-amino-6-[5-(1H-pyrazol-4-yl)-1H-pyrrolo[2,3-b]pyridin-3-yl]pyrimidin-4-yl}-1-pyridin-4-ylpropan-1-ol]",1.6 nM
10,"CC(O)(c1ccccc1)c1cc(-c2c[nH]c3ncc(-c4cncnc4)cc23)nc(N)n1 (stereo not drawn) [A100, 1-[2-amino-6-(5-pyrimidin-5-yl-1H-pyrrolo[2,3-b]pyridin-3-yl)pyrimidin-4-yl]-1-phenylethanol]",1700 nM
11,"CC(C)n1cc(-c2cnc3[nH]cc(-c4cc(C(C)(O)C(C)C)nc(N)n4)c3c2)cn1 (stereo not drawn) [A88, 2-{2-amino-6-[5-(1-isopropyl-1H-pyrazol-4-yl)-1H-pyrrolo[2,3-b]pyridin-3-yl]-pyrimidin-4-yl}-3-methylbutan-2-ol]",28 nM
12,"CCC(OCOC)(c1cccc(F)c1)c1cc(-c2c[nH]c3ncc(Br)cc23)nc(N)n1 (stereo not drawn) [A54, 4-(5-bromo-1H-pyrrolo[2,3-b]pyridin-3-yl)-6-[1-(3-fluorophenyl)-1-methoxymethoxypropyl]pyrimidin-2-ylamine]",1500 nM
13,"CC(O)(c1ccccc1)c1cc(-c2c[nH]c3ncc(-c4cnn(CCO)c4)cc23)nc(N)n1 (single isomer, unassigned) [A96, 1-(2-amino-6-{5-[1-(2-hydroxyethyl)-1H-pyrazol-4-yl]-1H-pyrrolo[2,3-b]-pyridin-3-yl}pyrimidin-4-yl)-1-phenylethanol]",18 nM
14,"COCOC(C)(c1ccccc1)c1cc(-c2c[nH]c3ncc(-c4cnn(C)c4)cc23)nc(N)n1 (stereo not drawn) [A17, 4-(1-methoxymethoxy-1-phenylethyl)-6-[5-(1-methyl-1H-pyrazol-4-yl)-1H-pyrrolo[2,3-b]pyridin-3-yl]pyrimidin-2-ylamine]",58 nM
15,"CC(O)(c1ccccc1)c1cc(-c2c[nH]c3ncc(-c4cnn(CCO)c4)cc23)nc(N)n1 (stereo not drawn) [A99, 1-(2-amino-6-{5-[1-(2-hydroxyethyl)-1H-pyrazol-4-yl]-1H-pyrrolo[2,3-b]-pyridin-3-yl}pyrimidin-4-yl)-1-phenylethanol]",41 nM
16,"CC(O)(c1cccc(F)c1)c1cc(-c2c[nH]c3ncc(-c4ccc(CC#N)cc4)cc23)nc(N)n1 (stereo not drawn) [A55, [4-(3-{2-amino-6-[1-(3-fluorophenyl)-1-hydroxyethyl]pyrimidin-4-yl}-1H-pyrrolo[2,3-b]pyridin-5-yl)phenyl]acetonitrile]",75 nM
17,"Cn1cc(-c2cnc3[nH]cc(-c4cc(C(C)(O)c5cccnc5)nc(N)n4)c3c2)cn1 (single isomer, unassigned) [A58, 1-{2-amino-6-[5-(1-methyl-1H-pyrazol-4-yl)-1H-pyrrolo[2,3-b]pyridin-3-yl]-pyrimidin-4-yl}-1-pyridin-3-ylethanol]",85 nM
18,"CCC(O)(c1ccncc1)c1cc(-c2c[nH]c3ncc(-c4cnn(C)c4)cc23)nc(N)n1 (single isomer, unassigned) [A21, 1-{2-amino-6-[5-(1-methyl-1H-pyrazol-4-yl)-1H-pyrrolo[2,3-b]pyridin-3-yl]-pyrimidin-4-yl}-1-pyridin-4-ylpropan-1-ol]",36 nM
19,"CC(O)(c1ccccc1)c1cc(-c2c[nH]c3ncc(-c4cnn(Cc5cccs5)c4)cc23)nc(N)n1 (stereo not drawn) [A47, 1-{2-amino-6-[5-(1-thiophen-2-ylmethyl-1H-pyrazol-4-yl)-1H-pyrrolo[2,3-b]-pyridin-3-yl]pyrimidin-4-yl}-1-phenylethanol]",100 nM
20,"Cn1cc(-c2cnc3[nH]cc(-c4cc(C(C)(O)c5ccc(CO)cc5)nc(N)n4)c3c2)cn1 (stereo not drawn) [A31, 1-{2-amino-6-[5-(1-methyl-1H-pyrazol-4-yl)-1H-pyrrolo[2,3-b]pyridin-3-yl]-pyrimidin-4-yl}-1-(4-hydroxymethylphenyl)ethanol]",44 nM
21,"CC[C@@](O)(c1ccncc1)c1cc(-c2c[nH]c3ncc(-c4cnn(CC(=O)N5CCCCC5)c4)cc23)nc(N)n1 [A46, 2-(4-{3-[2-amino-6-((R)-1-hydroxy-1-pyridin-4-ylpropyl)pyrimidin-4-yl]-1H-pyrrolo[2,3-b]pyridin-5-yl}pyrazol-1-yl)-1-piperidin-1-ylethanone]",55 nM
22,"CC(O)(c1ccccc1)c1cc(-c2c[nH]c3ncc(-c4cnn(CC5CC5)c4)cc23)nc(N)n1 (stereo not drawn) [A83, 1-{2-amino-6-[5-(1-cyclopropylmethyl-1H-pyrazol-4-yl)-1H-pyrrolo[2,3-b]-pyridin-3-yl]pyrimidin-4-yl}-1-phenylethanol]",59 nM
23,"CC(O)(c1ccccc1)c1cc(-c2c[nH]c3ncc(-c4cnn(CCC(=O)N5CCOCC5)c4)cc23)nc(N)n1 (stereo not drawn) [A67, 3-(4-{3-[2-amino-6-(1-hydroxy-1-phenylethyl)pyrimidin-4-yl]-1H-pyrrolo-[2,3-b]pyridin-5-yl}pyrazol-1-yl)-1-morpholin-4-ylpropan-1-one]",28 nM
24,"COCOC(C)(c1ccnc(C)c1)c1cc(-c2c[nH]c3ncc(-c4cnn(C)c4)cc23)nc(N)n1 (stereo not drawn) [A108, 4-[1-methoxymethoxy-1-(2-methylpyridin-4-yl)ethyl]-6-[5-(1-methyl-1H-pyrazol-4-yl)-1H-pyrrolo[2,3-b]pyridin-3-yl]pyrimidin-2-ylamine]",49 nM
25,"CO[C@@](C)(c1ccccc1)c1cc(-c2c[nH]c3ncc(-c4cnn(CCO)c4)cc23)nc(N)n1 (single isomer, unassigned) [A93]",48 nM
26,"CCC(O)(c1ccncc1)c1cc(-c2c[nH]c3ncc(-c4cnn(C)c4)cc23)nc(N)n1 (single isomer, unassigned) [A20, 1-{2-amino-6-[5-(1-methyl-1H-pyrazol-4-yl)-1H-pyrrolo[2,3-b]pyridin-3-yl]-pyrimidin-4-yl}-1-pyridin-4-ylpropan-1-ol]",2.2 nM
27,"CCOC(=O)CCn1cc(-c2cnc3[nH]cc(-c4cc(C(C)(OCOC)c5ccccc5)nc(N)n4)c3c2)cn1 (stereo not drawn) [A78, ethyl 3-(4-{3-[2-amino-6-(1-methoxymethoxy-1-phenylethyl)pyrimidin-4-yl]-1H-pyrrolo[2,3-b]pyridin-5-yl}pyrazol-1-yl)propionate]",61 nM
